Assay results from patent US20060069038A1, “Irreversible caspase-3 inhibitors as active site probes” (priority 2003, published 2006).
Like-named read-outs stand apart in the source and are kept apart here.

Biological target: T1, caspase-3 (Rattus norvegicus, UniProt P55213)
T1 construct: endogenous in cells; host or cells: primary rat thymocytes (Sprague-Dawley), spontaneous apoptosis in culture
T1 sequence (P55213 29-175 limits assumed): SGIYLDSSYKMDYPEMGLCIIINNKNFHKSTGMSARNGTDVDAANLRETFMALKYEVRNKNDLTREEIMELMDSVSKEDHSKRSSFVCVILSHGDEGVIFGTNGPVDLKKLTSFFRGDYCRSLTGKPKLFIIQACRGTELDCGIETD
T1 sequence (P55213 176-277 limits assumed): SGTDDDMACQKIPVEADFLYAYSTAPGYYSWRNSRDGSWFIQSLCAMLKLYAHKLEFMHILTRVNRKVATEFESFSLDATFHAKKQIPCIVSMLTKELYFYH
Assay: Caspase active site occupancy by [125I]-M808 labeling in whole rat thymocytes
Format: cell-based
Description: FIG. 5. Determination of caspase active site occupancy by M867 in cultured rat thymocytes. A-Theoretical calculations for the determination of the percentage of caspase-3 active sites occupied by M867 in whole cells. The total amount of caspase-3 p17 subunit is determined densitometrically by either Western blotting of saturation [^125I]-M808 labeling. Partial labeling of active caspases in whole cells is perforemd (see materials and methods). A graph of the p17 amount against partial [^125I]-M808 labeling signal in the absence of M867 (or other reversible caspase inhibitors) is plotted. The [^125I]-M808 signal expected from the measured p17 amount is estimated form this plot. The actual [^125I]-M808 signal (by partial labeling) in the presence of reversible inhibitor is measured. The ratio of actual [^125I]-M808 signal over expected [^125I]-M808 signal multiplied by 100=the percentage of caspase active sites unoccupied by an inhibitor. The percentage occupancy=100−% free active sites. B-C An actual determination of caspase active site occupancy by M867 in whole rat thymocytes. B-caspase-3 western blot. C-[^125I]-M808 signal from whole rat thymocytes exposed to increasing concentrations of M867. Comparison of M867 caspase inhibition potency (IC50) determined by DNA fragmentation inhibition and [^125I]-M808 labeling is also depicted. […]

IC50 (five independent experiments, p=0.03 vs DNA fragmentation IC50, read-out: IC50 determined with M808): 130 nM
IC50 (whole rat thymocytes, experiment of FIG. 5, read-out: IC50, occupancy of caspase by M867 ([125I]-M808 labeling)): 140 nM
SMILES: CCCCCN(C)CC(=O)[C@H](CC(=O)O)NC(=O)[C@H](CC)n1cc(C(C)(C)C)nc(NCc2nonc2C)c1=O [Example M867, (3S)-3-({(2S)-2-[5-tert-butyl-3-{[(4-methyl-1,2,5-oxadiazol-3-yl)methyl]amino}-2-oxopyrazin-1(2H)-yl]butanoyl}amino)-5-[methyl(pentyl)amino]-4-oxopentanoic acid]
